pKi: −log10 of the molar value.
Target: T1, CCK2 receptor (Homo sapiens, UniProt P32239)
T1 construct: Membranes were prepared from the HEKZFP cells after induction; endogenous in cells; host or cells: HEKZFP cells (T-REx-293 with tet-inducible ZFP-VP16 specific for the CCK2R gene), doxycycline-induced; membrane preparation
T1 sequence (P32239 1-447): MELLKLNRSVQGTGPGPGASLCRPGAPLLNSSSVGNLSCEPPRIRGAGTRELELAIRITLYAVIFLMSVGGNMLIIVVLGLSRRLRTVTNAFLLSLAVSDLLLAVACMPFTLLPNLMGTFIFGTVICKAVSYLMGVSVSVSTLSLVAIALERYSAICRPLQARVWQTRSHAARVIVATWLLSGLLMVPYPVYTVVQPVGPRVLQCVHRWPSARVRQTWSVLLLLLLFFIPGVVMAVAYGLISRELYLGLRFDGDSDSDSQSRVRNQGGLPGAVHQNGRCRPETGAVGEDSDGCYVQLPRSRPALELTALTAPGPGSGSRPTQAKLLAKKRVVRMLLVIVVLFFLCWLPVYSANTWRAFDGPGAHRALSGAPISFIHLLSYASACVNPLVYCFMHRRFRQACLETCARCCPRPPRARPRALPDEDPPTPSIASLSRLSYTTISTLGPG
Experiment: CCK2 receptor radioligand binding assay ([125I]-BH-CCK-8S, HEKZFP cell membranes)
Conditions: competition with [125I]-BH-CCK-8S, membranes of induced HEKZFP cells, 60 min at 21±3° C., Cheng-Prusoff
Method: Zinc Finger Proteins (ZFP) specific for the CCK2R gene were identified by Sangamo Biosciences. The ZFP domain was fused with the herpes simplex virus VP16 activation domain, and the fusion protein was subsequently cloned into the pcDNA3 mammalian expression vector (Invitrogen, San Diego, Calif.). […] After 2 weeks of selection in culture medium containing […] Zeocin (Invitrogen), sixty drug-resistant stable clones were isolated and analyzed for ZFP expression as well as CCK2R induction upon addition of doxycycline to the culture medium.
HEKZFP cells were grown in DMEM supplemented with L-glutamine (2 mM), penicillin (50 units/mL) and streptomycin (50 μg/mL) and 10% FBS (v/v).
Membranes were prepared from the HEKZFP cells after induction. […] The thawed pellets were homogenized using a Polytron PT-10 (7×1 s). The homogenates were centrifuged for 5 min at 1500 rpm (600×g), and the resulting pellets were discarded. The supernatants were re-centrifuged in order to collect the receptor-membrane pellets (25 min 15,000 rpm; 39,800×g), which were re-suspended in buffer A.
The assay preparation was incubated for 1 h at 21±3° C., and then the assay was terminated by rapid filtration of the preparation under reduced pressure. The loaded filters were washed three times using undiluted PBS (100 μL), and then 100 μL of scintillation fluid was added to the filter plate. Bound radioactivity was determined using a Topcount (Packard BioScience, Meriden, Conn.) with a count time of 1 min. […] To validate the radioligand concentration and incubation time for the assay, saturation and kinetic binding studies were also conducted (see M. F. Morton, The Pharmacological Characterization of Cholecystokinin Receptors in the Human Gastrointestinal Tract. PhD Thesis, University of London, 2000). […] The assay was then terminated according to the procedure outlined above.
The pKi values were determined using the equation of Y.-C.
To circumvent problems associated with computer-assisted data analysis of compounds with low affinity, the data obtained in the current study were weighed according to a method described by Morton. In brief, 100% and 0% specific binding were defined independently using total binding and binding obtained in the presence of a high concentration of the reference antagonist, 2-NAP.

| Structure (SMILES) | pKi |
| --- | --- |
| C[C@@H](NC(=O)c1ccc(C(F)(F)F)cc1NS(=O)(=O)c1cccc2nccnc12)c1ccc(F)cc1F [Example 36, (R)—N-[1-(2,4-Difluorophenyl)ethyl]-2-(quinoxaline-5-sulfonylamino)-4-trifluoromethylbenzamide] | 7.60 |
| O=C(N[C@@H](c1ccc(F)cc1F)C(F)(F)F)c1ccc(Cl)cc1NS(=O)(=O)c1cccc2nccnc12 [Example 29, (S)-4-Chloro-N-[1-(2,4-difluoro-phenyl)-2,2,2-trifluoroethyl]-2-(quinoxaline-5-sulfonylamino)-benzamide] | 6.30 |
| O=C(c1ccc(Br)cc1NS(=O)(=O)c1cccc2nccnc12)N1CCCc2cc(F)ccc2C1 [Example 24, Quinoxaline-5-sulfonic acid [5-bromo-2-(7-fluoro-1,3,4,5-tetrahydro-benzo[c]azepine-2-carbonyl)-phenyl]-amide] | 6.50 |
| O=C(NCc1ccc(F)cc1Cl)c1ccc(Cl)cc1NS(=O)(=O)c1cccc2nccnc12 [Example 61, 4-Chloro-N-(2-chloro-4-fluoro-benzyl)-2-(quinoxaline-5-sulfonylamino)-benzamide] | 7.40 |
| O=C(c1ccc(Br)cc1NS(=O)(=O)c1cccc2nccnc12)N1CCOc2cc(F)ccc2C1 [Example 39, Quinoxaline-5-sulfonic acid [5-bromo-2-(8-fluoro-2,3-dihydro-5H-benzo[f][1,4]oxazepine-4-carbonyl)phenyl]-amide] | 7.10 |
| C[C@@H](NC(=O)c1cc(Cl)c(Cl)cc1NS(=O)(=O)c1cccc2nccnc12)c1ccc(F)cc1F [Example 5, (R)-4,5-Dichloro-N-[1-(2,4-difluorophenyl)ethyl]-2-(quinoxaline-5-sulfonylamino)-benzamide] | 7.80 |
| C[C@@H]1COC[C@H](C)N1C(=O)c1ccc(I)cc1NS(=O)(=O)c1cccc2nccnc12 [Example 25, (R,S)-Quinoxaline-5-sulfonic acid [2-(3,5-dimethylmorpholine-4-carbonyl)-5-iodophenyl]-amide] | 6.50 |
| C[C@@H](NC(=O)c1ccc(I)cc1NS(=O)(=O)c1cccc2nccnc12)c1ccc(F)cc1F [Example 15, (R)—N-[1-(2,4-Difluorophenyl)-ethyl]-4-iodo-2-(quinoxaline-5-sulfonylamino)-benzamide] | 7.90 |
| O=C(NCc1ccc(Cl)cc1Cl)c1ccc(Cl)cc1NS(=O)(=O)c1cccc2nccnc12 [Example 58, 4-Chloro-N-(2,4-dichloro-benzyl)-2-(quinoxaline-5-sulfonylamino)-benzamide] | 7.20 |
| C[C@@H](NC(=O)c1ccc(C#N)cc1NS(=O)(=O)c1cccc2nccnc12)c1ccc(F)cc1F [Example 38, (R)-4-Cyano-N-[1-(2,4-difluoro-phenyl)ethyl]-2-(quinoxaline-5-sulfonylamino)-benzamide] | 6.50 |
| C[C@@H]1COC[C@H](C)N1C(=O)c1ccc(Br)cc1NS(=O)(=O)c1cccc2nccnc12 [Example 27, meso-Quinoxaline-5-sulfonic acid [2-(3,5-dimethylmorpholine-4-carbonyl)-5-bromophenyl]-amide] | 6.50 |
| C[C@@H](NC(=O)c1ccc(I)cc1NS(=O)(=O)c1cccc2nccnc12)c1ccc(Cl)cc1Cl [Example 64, (R)-N-[1-(2,4-Dichloro-phenyl)-ethyl]-4-iodo-2-(quinoxaline-5-sulfonylamino)-benzamide] | 7.60 |
| O=C(c1ccc(Br)cc1NS(=O)(=O)c1cccc2nccnc12)N1CCCCCC1 [Example 21, Quinoxaline-5-sulfonic acid [2-(azepane-1-carbonyl)-5-bromophenyl]-amide] | 6.90 |
| O=C(c1ccc(Cl)cc1NS(=O)(=O)c1cccc2nccnc12)N1CCOc2cc(F)cc(F)c2C1 [Example 40, Quinoxaline-5-sulfonic acid [5-chloro-2-(6,8-difluoro-2,3-dihydro-5H-benzo[f][1,4]oxazepine-4-carbonyl)-phenyl]-amide] | 6.60 |
| O=C(c1ccc(I)cc1NS(=O)(=O)c1cccc2nccnc12)N1CCC(O)CC1 [Example 26, Quinoxaline-5-sulfonic acid [2-(4-hydroxy-piperidine-1-carbonyl)-5-iodo-phenyl]-amide] | 6.50 |
| O=C(c1ccc(I)cc1NS(=O)(=O)c1cccc2nccnc12)N1CCOc2cc(F)cc(F)c2C1 [Example 94, Quinoxaline-5-sulfonic acid [2-(6,8-difluoro-2,3-dihydro-5H-benzo[f][1,4]oxazepine-4-carbonyl)-5-iodo-phenyl]-amide] | 6.40 |
| O=C(c1cc(Cl)c(Cl)cc1NS(=O)(=O)c1cccc2nccnc12)N1CCOCC1 [Example 20, Quinoxaline-5-sulfonic acid [4,5-dichloro-2-(morpholine-4-carbonyl)-phenyl]-amide] | 7.10 |

Results, then the compound that gave them:

| pKi | Structure (SMILES) |
| --- | --- |
| 7.50 | O=C(NC(CF)c1ccc(F)cc1F)c1ccc(Br)cc1NS(=O)(=O)c1cccc2nccnc12 (centres unmarked) [Example 74, 4-Bromo-N-[1-(2,4-difluoro-phenyl)-2-fluoro-ethyl]-2-(quinoxaline-5-sulfonylamino)-benzamide] |
| 7.60 | O=C(N[C@H](CF)c1ccc(F)cc1F)c1ccc(Br)cc1NS(=O)(=O)c1cccc2nccnc12 [Example 76, (S)-4-Bromo-N-[1-(2,4-difluoro-phenyl)-2-fluoro-ethyl]-2-(quinoxaline-5-sulfonylamino)-benzamide] |
| 7.20 | CC(NC(=O)c1ccc(Br)cc1NS(=O)(=O)c1cccc2nccnc12)c1ccc(Cl)cc1 (centres unmarked) [Example 50, 4-Bromo-N-[1-(4-chloro-phenyl)-ethyl]-2-(quinoxaline-5-sulfonylamino)-benzamide] |
| 7.90 | C[C@H](c1ccccc1)N(C)C(=O)c1ccc(Br)cc1NS(=O)(=O)c1cccc2nccnc12 [Example 33, (R)-4-Bromo-N-methyl-N-(1-phenyl-ethyl)-2-(quinoxaline-5-sulfonylamino)-benzamide] |
| 7.30 | O=C(c1ccc(Br)cc1NS(=O)(=O)c1cccc2nccnc12)N1CCCc2ccccc2C1 [Example 10, Quinoxaline-5-sulfonic acid [5-bromo-2-(1,3,4,5-tetrahydrobenzo[c]azepine-2-carbonyl)phenyl]-amide] |
| 7.50 | CN(Cc1ccc(F)cc1)C(=O)c1ccc(Br)cc1NS(=O)(=O)c1cccc2nccnc12 [Example 45, 4-Bromo-N-(4-fluoro-benzyl)-N-methyl-2-(quinoxaline-5-sulfonylamino)-benzamide] |
| 7.10 | O=C(N[C@H](CF)c1ccc(F)cc1)c1ccc(Br)cc1NS(=O)(=O)c1cccc2nccnc12 [Example 71, (S)-4-Bromo-N-[2-fluoro-1-(4-fluoro-phenyl)-ethyl]-2-(quinoxaline-5-sulfonylamino)-benzamide] |
| 7.50 | C[C@@H](NC(=O)c1ccc(Cl)cc1NS(=O)(=O)c1cccc2nccnc12)c1ccc(F)cc1 [Example 7, (R)-4-Chloro-N-[1-(4-fluorophenyl)-ethyl]-2-(quinoxaline-5-sulfonylamino)-benzamide] |
| 7.40 | O=C(NCc1ccc(F)cc1Cl)c1ccc(Br)cc1NS(=O)(=O)c1cccc2nccnc12 [Example 16, 4-Bromo-N-(2-chloro-4-fluoro-benzyl)-2-(quinoxaline-5-sulfonylamino)-benzamide] |
| 8.10 | C[C@H](c1ccccc1)N(C)C(=O)c1ccc(I)cc1NS(=O)(=O)c1cccc2nccnc12 [Example 34, (R)-4-Iodo-N-methyl-N-(1-phenyl-ethyl)-2-(quinoxaline-5-sulfonylamino)-benzamide] |
| 7.70 | CN(Cc1ccc(Cl)cc1)C(=O)c1ccc(I)cc1NS(=O)(=O)c1cccc2nccnc12 [Example 48, N-(4-Chloro-benzyl)-4-iodo-N-methyl-2-(quinoxaline-5-sulfonylamino)-benzamide] |
| 7.60 | CN(Cc1ccccc1)C(=O)c1ccc(I)cc1NS(=O)(=O)c1cccc2nccnc12 [Example 42, N-Benzyl-4-iodo-N-methyl-2-(quinoxaline-5-sulfonylamino)-benzamide] |

From patent US7563895B2, “Quinoxaline compounds” (Janssen Pharmaceutica, N.V., priority 2003, dated 2009)
